# Test results: US6737272B2, “Methods for modulation of oocyte activation” (The Board of Trustees of the Leland Stanford Junior …, priority 1999, dated 2004)
# B1: nNOS: recombinant neuronal nitric oxide synthase from Stratagene (protein, UniProt P29475 1-1434, looked up)
# Nitric oxide synthase 1: MEDHMFGVQQIQPNVISVRLFKRKVGGLGFLVKERVSKPPVIISDLIRGGAAEQSGLIQAGDIILAVNGRPLVDLSYDSALEVLRGIASETHVVLILRGPEGFTTHLETTFTGDGTPKTIRVTQPLGPPTKAVDLSHQPPAGKEQPLAVDGASGPGNGPQHAYDDGQEAGSLPHANGLAPRPPGQDPAKKATRVSLQGRGENNELLKEIEPVLSLLTSGSRGVKGGAPAKAEMKDMGIQVDRDLDGKSHKPLPLGVENDRVFNDLWGKGNVPVVLNNPYSEKEQPPTSGKQSPTKNGSPSKCPRFLKVKNWETEVVLTDTLHLKSTLETGCTEYICMGSIMHPSQHARRPEDVRTKGQLFPLAKEFIDQYYSSIKRFGSKAHMERLEEVNKEIDTTSTYQLKDTELIYGAKHAWRNASRCVGRIQWSKLQVFDARDCTTAHGMFNYICNHVKYATNKGNLRSAITIFPQRTDGKHDFRVWNSQLIRYAGYKQPDGSTLGDPANVQFTEICIQQGWKPPRGRFDVLPLLLQANGNDPELFQIPPELVLEVPIRHPKFEWFKDLGLKWYGLPAVSNMLLEIGGLEFSACPFSGWYMGTEIGVRDYCDNSRYNILEEVAKKMNLDMRKTSSLWKDQALVEINIAVLYSFQSDKVTIVDHHSATESFIKHMENEYRCRGGCPADWVWIVPPMSGSITPVFHQEMLNYRLTPSFEYQPDPWNTHVWKGTNGTPTKRRAIGFKKLAEAVKFSAKLMGQAMAKRVKATILYATETGKSQAYAKTLCEIFKHAFDAKVMSMEEYDIVHLEHETLVLVVTSTFGNGDPPENGEKFGCALMEMRHPNSVQEERKSYKVRFNSVSSYSDSQKSSGDGPDLRDNFESAGPLANVRFSVFGLGSRAYPHFCAFGHAVDTLLEELGGERILKMREGDELCGQEEAFRTWAKKVFKAACDVFCVGDDVNIEKANNSLISNDRSWKRNKFRLTFVAEAPELTQGLSNVHKKRVSAARLLSRQNLQSPKSSRSTIFVRLHTNGSQELQYQPGDHLGVFPGNHEDLVNALIERLEDAPPVNQMVKVELLEERNTALGVISNWTDELRLPPCTIFQAFKYYLDITTPPTPLQLQQFASLATSEKEKQRLLVLSKGLQEYEEWKWGKNPTIVEVLEEFPSIQMPATLLLTQLSLLQPRYYSISSSPDMYPDEVHLTVAIVSYRTRDGEGPIHHGVCSSWLNRIQADELVPCFVRGAPSFHLPRNPQVPCILVGPGTGIAPFRSFWQQRQFDIQHKGMNPCPMVLVFGCRQSKIDHIYREETLQAKNKGVFRELYTAYSREPDKPKKYVQDILQEQLAESVYRALKEQGGHIYVCGDVTMAADVLKAIQRIMTQQGKLSAEDAGVFISRMRDDNRYHEDIFGVTLRTYEVTNRLRSESIAFIEESKKDTDEVFSS
# Key:
# [1] = test system: L. pictus eggs; assay: Egg activation by microinjection (fertilization envelope elevation, pronuclear centering)
# Method: (§2) Also, co-injection of SNAP or CaM/nNOS with oxyHb. […] Subsequent activation of oxyHb-inhibited eggs by ionomycin (2 μM) or injection of either GTPγS (100 μM final) or cGMP (50 μM final).
# [2] = test system: NOS; conditions: gamete homogenates; ornithine 1.5 mM, nitro-L-arginine 100 μM
# Method: Absorbance at 585 nm was measured and normalized to total protein. […] This diaphorase activity is indicative of NOS activity. […] NOS activity is shown measured by citrulline conversion.
# NADPH-dependent diaphorase activity or histochemical staining was assessed after a 24-h fixation of gametes. For activity measurements, gametes were lysed (sperm) or sonicated (eggs) in PBS with 1% NP-40 and incubated overnight in 1 mM NADPH, 0.5 mM NBT. Immunodepletion of diaphorase activity was done after size separation (>100K molecular weight cut-off (Amicon)). [^3H]arginine to [^3H]citrulline conversion of gamete homogenates was assessed after two cycles of freeze-thaw lysis (sperm) or Dounce homogenization (eggs) (in mM): 50 KCl, 10 NaCl, 1 EDTA, 5 DTT, 20 HEPES with PIC; pH 8. For inhibition experiments, gamete homogenates were treated with 20% (v/v) activated Dowex to remove endogenous arginine. […] NO determination by DAF fluorescence (490/515 nm) was done after incubating gametes in seawater containing 10 μM DAF.
# [3] = test system: L. pictus eggs; assay: Egg activation after insemination of injected eggs; conditions: for subsequent activation of oxyHb-inhibited eggs: after insemination, ionomycin 2 μM, GTPγS 100 μM final or cGMP 50 μM final injected; for fertilization envelope elevation / egg activation after insemination: eggs injected with oxyHb 12.5 or 50 μM, or 50 μM BSA, apoHb, cyanometHb, 1:20,000 sperm dilution
# Method: as §2
# (§3) The necessity of NO (or its equivalents) was assessed by injecting eggs with oxyHb.
# [4] = test system: S. purpuratus sperm; assay: NO production after sperm activation, nitrite accumulation; format: cell-based; conditions: 5 min, 5 mM ionomycin or egg jelly, normalized to per cent acrosome reaction
# Text: (§1) We measure production of NO by gametes by accumulation of nitrite, an auto-oxidation product of NO, or by fluorescence changes in the NO indicator dye, diaminofluorescein (DAF). Qualitatively similar results are seen for exogenous NO production: activation of either male or female gametes results in NO accumulation in the surrounding medium (Table 1). […] Pre-treatment with inhibitors of the acrosome reaction, substantially prevents NO generation, but is triggered after subsequent addition of ionomycin (Table 2). Similarly, eggs activated by ionomycin treatment generate NO, although at lower levels than sperm (Table 1).
# [5] = test system: S. purpuratus sperm; assay: NO production after sperm activation, DAF fluorescence; format: cell-based; conditions: 5 min, 5 mM ionomycin or egg jelly
# Text: as §1
# [6] = test system: S. purpuratus eggs; assay: NO production after egg activation, nitrite accumulation; format: cell-based; conditions: 1 mM ionomycin, 5 min
# Text: as §1
# [7] = test system: S. purpuratus eggs; assay: NO production after egg activation, DAF fluorescence; format: cell-based; conditions: 1 mM ionomycin, 5 min
# Text: as §1
# [8] = test system: bovine oocytes; assay: Calcium oscillations in bovine oocytes (fura-2 AM imaging); format: cell-based; conditions: oxyhemoglobin injected 30 to 45 minutes before sperm factor, ~200 uM final heme
# Method: Bovine oocytes were ordered from Bomed (2433 University Avenue, Madison, Wis. 53705-3835). They collect the oocytes from the ovaries of slaughtered cows and place them immediately in maturation media to be shipped overnight.
# Oocytes were matured overnight and used within 24-28 hours of collection. Oocytes were washed briefly three times in TL-HEPES media and then denuded by vortexing for 3 minutes in TL-HEPES containing 0.2% hyaluronidase. Denuded oocytes were subsequently washed in TL-HEPES and loaded with fura-2 AM by incubation at 37° C. for 15 to 30 minutes. Oocytes were attached to imaging dishes (Biopteks) using 50 μg/ml poly-D-lysine and imaged using 350/380 nm excitation and 510 nm emission filters on a Zeiss Axiovert S100 microscope and fluorescence intensity quantified using Metafluor 4.1 (Universal Imaging).
# SNAP ([…]), an NO donor was synthesized prior to use by the method of Fehsel et al. (1996) Meth. Enzymol. 269:426-434. NO release was accomplished by bath addition of SNAP. Calcium release could be effectuated by addition of SNAP at varying concentrations (0.5 mM to 5 mM).
# Sperm factor was prepared by the method of Wu et al. (Wu et al., 1997) and injected by a Narishige syringe microinjector to ˜2% oocyte volume. […] Calcium levels were monitored as detailed above.
# [9] = test system: L. pictus eggs; assay: Calcium release in eggs at fertilization measured by calcium green-2; conditions: oxyHb-injected eggs (14 eggs)
# Method: as §2, §3
molecule,measurement,setting,value
"[N]=O [NO, nitric oxide]",egg activation by bath application,"[1]; bath application, not injected",ineffective
recombinant nNOS with calmodulin (CaM): recombinant CaM-nNOS complexes formed by mixing CaM with nNOS,pronuclear centering (eggs exhibiting a full fertilization envelope),[1]; injected eggs,13 out of 13
N=C(NCCC[C@H](N)C(=O)O)N[N+](=O)[O-] [NG-nitro-L-arginine],effect on citrulline conversion activity,[2],greatly suppresses
Nc1nc2c(ncn2[C@@H]2O[C@H](COP(=O)(O)OP(=O)(O)OP(O)(O)=S)[C@@H](O)[C@H]2O)c(=O)[nH]1 [GTPS],subsequent activation of oxyHb-inhibited eggs,[3],elevate fertilization envelopes
Nc1nc2c(ncn2[C@@H]2O[C@@H]3COP(=O)(O)O[C@H]3[C@H]2O)c(=O)[nH]1 [cGMP],subsequent activation of oxyHb-inhibited eggs,[3],elevate fertilization envelopes
bovine serum albumin: a nitrosylable protein,fertilization envelope elevation / egg activation after insemination,[3],not significantly affected
C[C@H](CCC(=O)O)C[C@H](C)C[C@H](C)C(=O)/C=C(\O)[C@H](C)C[C@H](C)C/C=C/[C@@H](C)[C@@H](O)[C@@H](C)[C@@H](O)C[C@@H]1CC[C@@](C)([C@H]2CC[C@@](C)([C@@H](C)O)O2)O1 [ionomycin],Nitrite,[4]; Sperm (1 μl),75 ± 30 pmol
same,Nitrite,[4]; Sperm (5 ml),153 ± 15 pmol
same,Nitrite,[4]; Sperm (10 ml),283 ± 15 pmol
same,DAF Fluorescence,[5]; Sperm (1 μl),103 ± 13 arbitrary units
same,DAF Fluorescence,[5]; Sperm (5 ml),543 ± 35 arbitrary units
same,DAF Fluorescence,[5]; Sperm (10 ml),910 ± 93 arbitrary units
same,Nitrite,"[6]; Eggs (1%, v/v)",64 ± 4 pmol
same,Nitrite,"[6]; Eggs (2%, v/v)",82 ± 9 pmol
same,Nitrite,"[6]; Eggs (5%, v/v)",141 ± 10 pmol
same,DAF Fluorescence,"[7]; Eggs (1%, v/v)",56 ± 10 arbitrary units
same,DAF Fluorescence,"[7]; Eggs (2%, v/v)",76 ± 8 arbitrary units
same,DAF Fluorescence,"[7]; Eggs (5%, v/v)",112 ± 6 arbitrary units
same,subsequent activation of oxyHb-inhibited eggs,[3],elevate fertilization envelopes
"oxyHb: oxyhemoglobin, a physiological scavenger of NO",effect on sperm factor induced calcium oscillations,[8],inhibition
same,fertilization envelope elevation / egg activation after insemination,[3],dose-dependently inhibited
same,pronuclear centering and first cell division,[3]; oxyHb-injected eggs after insemination,0 out of 15
same,peak Ca2+ post-fertilization,[9]; control 1.4±0.2 μM,540 ± 95 nM
same,resting Ca2+,[9]; control 240±30 nM,280 ± 65 nM
same,egg activation by SNAP or CaM/nNOS when co-injected with oxyHb,[1]; co-injection,does not occur
B1,injected amount yielding activation,"[1]; recombinant nNOS, with CaM",~0.0075 pg
